Results on eight molecules are retold here after patent publication US20050032124A1, “Identification of genotype-selective agents for treating Huntington's disease” (priority 2003, published 2005).

Test [1] relates to BJ-TERT/LT/ST/RAS^V12 tumorigenic cells. The test is described as follows: Calcein AM viability assay, dilution-series retest. The format is cell-based, human. The conditions noted are these: for IC50: Homo sapiens, 48 h, read-out: IC50, BJ-TERT/LT/ST/Ras^V12; for Tumor Selectivity: IC50 in primary BJ cells divided by IC50 in BJ-TERT/LT/ST/RAS^V12 tumorigenic cells. How it is done: Described here is work carried out to identify compounds with increased potency or activity in the presence of hTERT, LT, ST, E6, E7 or RAS^V12. […] The primary screen tested (in quadruplicate) the effect of treating tumorigenic BJ-TERT/LT/ST/RAS^V12 engineered tumorigenic cells with each compound for 48 hours at a concentration of 4 μg/mL, corresponding to 10 μM for a compound with a molecular weight of 400, which is the approximate median molecular weight of the libraries. Cell viability was measured using the dye calcein acetoxymethyl ester (calcein AM) (Wang et al., 1993, Hum. Immunol. 3 7, 264-270), which is a non-fluorescent compound that freely diffuses into cells. In live cells, calcein AM is cleaved by intracellular esterases, forming the anionic fluorescent derivative calcein, which cannot diffuse out of live cells. […] The IC50 value (concentration required to inhibit 50% of the calcein AM signal) was calculated for each compound in each cell line (Table 1).
(§1) Calcein acetoxylmethyl ester (AM) is a cell membrane-permeable, non-fluorescent compound that is cleaved by intracellular esterases to form the anionic, cell-impermeable, fluorescent compound calcein. Viable cells are stained by calcein because of the presence of intracellular esterases and because the intact plasma membrane prevents fluorescent calcein from leaking out of cells (Wang et al., 1993, supra). Cells were seeded in 384-well plates using a Zymark Sciclone ALH, treated with each compound in triplicate at 4 μg/mL in the primary screen for two days, washed with phosphate-buffered saline on a Packard Minitrak with a 384-well washer and incubated for four hours with 0.7 μg/mL calcein (Molecular Probes). Total fluorescence intensity in each well was recorded on a Packard Fusion platereader, and converted to a percent inhibition of signal by subtracting the instrument background and dividing by the average signal obtained when cells were not treated with any compound.
(§2) Replica daughter plates were prepared with a Zymark Sciclone ALH and integrated Twister II by diluting stock plates 50 fold in medium lacking serum and pen/strep to obtain a compound concentration in daughter plates of 80 μg/ml with 2% DMSO. Assay plates were prepared by seeding cells in black, clear bottom 384-well plates in columns 1-23 (6000 cells/well in 57 μl) using a syringe bulk dispenser. Columns 3-22 were treated with compounds from a daughter library plate by transferring 3 μl from the daughter library plate using 384-position fixed cannula array. The final compound concentrations in assay plates were thus 4 μg/ml. The assay plates were incubated for 48 hours at 37° C. in humidified incubator containing 5% CO2. Plate processing for the calcein AM viability assay was performed using an integrated Minitrak/Sidetrak robotic system from Packard Bioscience (Perkin Elmer). Assay plates were washed with phosphate buffered saline, and 20 μl of calcein AM (0.7 μg/ml) per well was added. Plates were incubated at room temperature for 4 hours. Fluorescence intensity was determined using a Fusion platereader with filters centered on an excitation of 485 nm and an emission of 535 nm.
Compounds to be retested were purchased from manufacturers. Stocks were prepared in DMSO at a concentration of 1 mg/ml in 384-well polypropylene plates with a 16-point, two-fold dilution dose curve of each compound in a column, in duplicates. Column 1-2 and 23-24 were left empty for controls. Daughter retest plates were prepared from stock retest plate by diluting 66.6 fold in DMEM in 384-well deep-deep well plates (4.5 μl transfer into 300 μl). Cells were seeded at a density of 6000 per well in 40 μl, and 20 μl was added from a daughter retest plate. The plates were incubated for two days at 37° C. with 5% CO2.

Test [2] relates to BJ-TERT/p53DD/CDK4^R24C/D1/ST/RAS^V12 cells. As to the kind of experiment: Calcein AM viability assay, dilution-series retest. The format is cell-based. The conditions noted are these: Homo sapiens, 48 h, read-out: IC50, BJ-TERT/p53DD/CDK4^R24C/cyclineD1/ST/Ras^V12.
Description: These engineered tumorigenic cells make use of dominantly acting viral oncoproteins such as LT, ST, E6 and E7. These viral proteins are possibly involved in cell transformation in specific forms of cancer, namely simian virus 40-induced malignant mesothelioma (Testa and Giordano, 2001, Semin Cancer Biol 11, 31-8) and human papillomavirus-induced cervical carcinoma (Bosch et al., 2002, J Clin Pathol 55, 244-65), and have been used to disrupt p53 and pRB function to transform cells in vitro and in vivo (Elenbaas et al., 2001, Genes Dev 15, 50-65; Jorcyk et al., 1998, Prostate 34, 10-22; Perez-Stable et al., 1997, Cancer Res 57, 900-6; Rich et al., 2001, Cancer Res 61, 3556-60; Sandmoller et al., 1995, Cell Growth Differ 6, 97-103). Applicants made use of these two different methods for inactivating cellular proteins, (they tested the effects of both LT and E6/E7-based inactivation of pRB and p53) in order to control for idiosyncratic effects that might be observed with a specific viral protein. The selectivity of these compounds was also confirmed in a cell line expressing dominant negative inhibitors of p53 and pRB that are not derived from viral elements. This cell line expresses (i) a truncated form of p53 (p53DD) that disrupts tetramerization of endogenous p53, (ii) a CDK4^R24C mutant resistant to inhibition by p16^INK4A and p15^INK4B (the major negative regulators of CDK4) and (iii) cyclin D1. The effects of the nine genotype-selective compounds were tested at a range of concentrations in these cells, which are referred to as BJ-TERT/ p53DD/CDK4^R24C/D1/ST/RAS^V12 cells (Table 1). […] However, the overall results of the analysis were unchanged by the use of non-viral proteins in this cell line (Table 1).
as §1, §2
Compounds to be retested were purchased from manufacturers. […]

The mark [3] stands for this setting: BJ-TERT/LT/ST/Ras^V12 cells, 16-point two-fold dilution, two days.
Where [4] appears, read: BJ-TERT/p53DD/CDK4^R24C/cyclineD1/ST/Ras^V12 cells, 16-point two-fold dilution, two days.

Values after ≈ are worked out from the molar mass of the structure shown. Read-outs that look alike come from different tables or passages of the source.

With `COc1ccc(C[C@H]2C(=O)N[C@@H](C)C(=O)N(C)[C@@H]3C(=O)N(C)[C@@H](Cc4ccc(O)c(c4)Oc4ccc(cc4)[C@@H]3O)C(=O)N[C@H](C)C(=O)N[C@@H](C)C(=O)N2C)cc1` [Bouvardin], the IC50 in test [1] (setting [3]) was 0.078 µg/mL (≈ 0.101 µM); in test [2], 0.156 µg/mL (≈ 0.202 µM). Moreover, the “Tumor Selectivity” value in test [1] is recorded as 4.

In the case of `CC[C@@]1(O)C(=O)OCc2c1cc1n(c2=O)Cc2cc3ccccc3nc2-1` [Camptothecin], the IC50 in test [1] (setting [3]) was 0.0195 µg/mL (≈ 0.056 µM); in test [2] (setting [4]) it was 1.25 µg/mL (≈ 3.59 µM). Moreover, in test [1], the “Tumor Selectivity” value was greater than 512.

Consider `COc1cccc2c1C(=O)c1c(O)c3c(c(O)c1C2=O)C[C@@](O)(C(C)=O)C[C@@H]3O[C@H]1C[C@H](N)[C@H](O)[C@H](C)O1` [Daunorubicin], for which the IC50 was 0.312 µg/mL (≈ 0.591 µM) in test [1] (setting [3]) and 0.625 µg/mL (≈ 1.18 µM) in test [2]. Further, the “Tumor Selectivity” value in test [1] is 16.

Take `COc1cccc2c1C(=O)c1c(O)c3c(c(O)c1C2=O)C[C@@](O)(C(=O)CO)C[C@@H]3O[C@H]1C[C@H](N)[C@H](O)[C@H](C)O1` [Doxorubicin]: the IC50 in test [1] (setting [3]) and in test [2] (setting [4]) was 1.25 µg/mL (≈ 2.3 µM) throughout. Moreover, the “Tumor Selectivity” value in test [1] was greater than 8.

Regarding `CS[C@H]1SC[C@H]2C(=O)N(C)[C@@H](C(C)C)C(=O)OC[C@@H](NC(=O)c3cnc4ccccc4n3)C(=O)N[C@@H](C)C(=O)N(C)[C@@H]1C(=O)N(C)[C@@H](C(C)C)C(=O)OC[C@@H](NC(=O)c1cnc3ccccc3n1)C(=O)N[C@@H](C)C(=O)N2C` [Echinomycin], the IC50 in test [1] was 0.0012 µg/mL (≈ 0.00109 µM); in test [2], 0.078 µg/mL (≈ 0.0708 µM). Besides, in test [1], the “Tumor Selectivity” value is listed as greater than 8333.

With `CCOc1ccccc1-n1c(C(C)N2CCN(C(=O)COc3ccc(Cl)cc3)CC2)nc2ccccc2c1=O` (stereo not drawn) [Erastin], the IC50 in test [1] (setting [3]) was 1.25 µg/mL (≈ 2.28 µM); in test [2] (setting [4]) it was 2.5 µg/mL (≈ 4.57 µM). In test [1], the “Tumor Selectivity” value is on record as greater than 8.

As for `O=C1c2c(O)ccc(O)c2C(=O)c2c(NCCNCCO)ccc(NCCNCCO)c21` [Mitoxantrone], the IC50 in test [1] (setting [3]) was 0.312 µg/mL (≈ 0.702 µM); in test [2] (setting [4]) it was 1.25 µg/mL (≈ 2.81 µM). Also, in test [1], the “Tumor Selectivity” value is on record as 18.

Consider `NC(=O)c1cn([C@@H]2O[C@H](CO)[C@@H](O)[C@H]2O)c2ncnc(N)c12` [Sangivamycin], for which the IC50 in test [1] (setting [3]) and in test [2] was 0.078 µg/mL (≈ 0.252 µM) in each case. Also, in test [1], the “Tumor Selectivity” value is given as 4.
